One experiment has as its system E. faecalis 0609. The experiment can be described thus: MIC assay, clinical isolate. The class given is cell-based. The conditions noted are these: Enterococcus faecalis. As for the experimental part:
(§1) MRSA (S. aureus Mu50, S. aureus Newman, S. aureus USA400, S. aureus USA300 LAC, S. aureus USA300) were obtained from Shanghai Institute of Materia Medica, Chinese Academy of Sciences. All clinically isolated Gram-positive bacteria used in this study were isolated from patients with various infections, different ages and sexes in the Shanghai Ruijin Rehabilitation Hospital. All strains were cultured in Luria-Bertani (LB) medium at 37 °C before use.
(§2) Bacteria were cultured in LB medium at 37 °C for 10 h, and then the bacterial suspension was diluted in Mueller–Hinton (MH) medium to a cell density of 2 × 10^5 colony forming units (CFU)/mL as the working suspension. The poly(Naeg)20 was serially diluted by MH medium in a 96-well plate, and an equal volume of bacterial suspension was added into each well. The final concentration of the poly(Naeg)20 was ranging from 200 to 1.56 μg/mL, and the plates were incubated at 37 °C for 9 h. Wells with inoculum and no polymer were used as the positive control; wells with only MH medium were used as the blank. The optical density (OD) in each well was measured on a Molecular Devices SpectraMax M2 precision microplate reader. The percentage of bacteria growth was calculated from1 %cellgrowth=A600polymer-A600blank/A600control-A600blank×100
(§3) The test was independently repeated at least three times.

Another experiment relates to E. faecalis 2305. The experiment can be described thus: MIC assay, clinical isolate. The format is cell-based. The conditions noted are these: Enterococcus faecalis. As for the experimental part: as §1, §2, §3
The next experiment concerns E. faecium 0502. The experiment can be described thus: MIC assay, clinical isolate. The class given is cell-based. The conditions noted are these: Enterococcus faecium; clinical isolate E. faecium 0502; read-out: MIC. As for the experimental part: as §1, §2, §3
The next experiment deals with E. faecium 0609. The experiment can be described thus: MIC assay, clinical isolate. The format is cell-based. The settings on record: Enterococcus faecium; clinical isolate E. faecium 0609; read-out: MIC. As for the experimental part: as §1, §2, §3
The subject of another experiment is E. faecium 0610. As to the kind of experiment: MIC assay, clinical isolate. The class given is cell-based. The settings on record: Enterococcus faecium; clinical isolate E. faecium 0610; read-out: MIC. As for the experimental part: as §1, §2, §3
The next experiment deals with E. faecium 1205. As to the kind of experiment: MIC assay, clinical isolate. The format is cell-based. The settings on record: Enterococcus faecium; clinical isolate E. faecium 1205; read-out: MIC. As for the experimental part:
as §1, §2, §3

Another experiment relates to E. faecium 2504. The experiment can be described thus: MIC assay, clinical isolate. The settings on record: Enterococcus faecium; clinical isolate E. faecium 2504; read-out: MIC. The format is cell-based. As for the experimental part:
as §1, §2, §3

For the next experiment, the system named is S. agalactiae 0613. As to the kind of experiment: MIC assay, clinical isolate. The format is cell-based. The conditions noted are these: Streptococcus agalactiae; clinical isolate S. agalactiae 0613; read-out: MIC. As for the experimental part: as §1, §2, §3
The next experiment relates to S. aureus 2202. The experiment can be described thus: MIC assay, clinical isolate. The class given is cell-based. The conditions noted are these: Staphylococcus aureus; clinical isolate S. aureus 2202; read-out: MIC. As for the experimental part: as §1, §2, §3
A further experiment deals with S. aureus 2802. The experiment can be described thus: MIC assay, clinical isolate. The class given is cell-based. The settings on record: Staphylococcus aureus; clinical isolate S. aureus 2802; read-out: MIC. As for the experimental part:
as §1, §2, §3

The next experiment has as its system S. aureus 2902. As to the kind of experiment: MIC assay, clinical isolate. The class given is cell-based. The settings on record: Staphylococcus aureus; clinical isolate S. aureus 2902; read-out: MIC. As for the experimental part: as §1, §2, §3
Another experiment relates to S. aureus 2904. The experiment can be described thus: MIC assay, clinical isolate. The format is cell-based. The settings on record: Staphylococcus aureus; clinical isolate S. aureus 2904; read-out: MIC. As for the experimental part:
as §1, §2, §3

Another experiment relates to S. epidermidis 0501. The experiment can be described thus: MIC assay, clinical isolate. The format is cell-based. The conditions noted are these: Staphylococcus epidermidis; clinical isolate S. epidermidis 0501; read-out: MIC. As for the experimental part:
as §1, §2, §3

For another experiment, the system named is S. epidermidis 9397. As to the kind of experiment: MIC assay, clinical isolate. The format is cell-based. The settings on record: Staphylococcus epidermidis; clinical isolate S. epidermidis 9397; read-out: MIC. As for the experimental part:
as §1, §2, §3

In another experiment the test system is S. haemolyticus 0202. As to the kind of experiment: MIC assay, clinical isolate. The format is cell-based. The conditions noted are these: Staphylococcus haemolyticus; clinical isolate S. haemolyticus 0202; read-out: MIC. As for the experimental part:
as §1, §2, §3

For a further experiment, the system named is S. haemolyticus 1107. As to the kind of experiment: MIC assay, clinical isolate. The format is cell-based. The settings on record: Staphylococcus haemolyticus; clinical isolate S. haemolyticus 1107; read-out: MIC. As for the experimental part: as §1, §2, §3
For the next experiment, the system named is S. haemolyticus 1303. The experiment can be described thus: MIC assay, clinical isolate. The class given is cell-based. The conditions noted are these: Staphylococcus haemolyticus; clinical isolate S. haemolyticus 1303; read-out: MIC. As for the experimental part: as §1, §2, §3
A further experiment has as its system L. monocytogenes 1001. As to the kind of experiment: MIC assay, clinical isolate. The settings on record: Listeria monocytogenes. The class given is cell-based, Listeria monocytogene. As for the experimental part: as §1, §2, §3
In experiment [1] the test system is S. aureus ATCC6538. The format is cell-based, Staphylococcus aureus. The settings on record: after 375 passages. As for the experimental part:
The antimicrobial-resistance test was conducted according to the previously reported method with slight modification. […] An aliquot of 2.5 μL of the mixture was sampled and diluted 400-fold in LB medium for a new cell-drug incubation cycle. The above cycle was repeated every 24 h. […] Generation of bacteria growth was calculated from incubating time and bacteria growth kinetics described below.

For experiment [2], the system named is S. aureus ATCC6538. The experiment can be described thus: Bacterial killing kinetics. The format is cell-based, Staphylococcus aureus. The settings on record: 2×MBC (Figure S40).
Experiment [3] relates to S. aureus USA300 biofilm formation. The experiment can be described thus: Inhibition study on biofilm formation. The format is cell-based, Staphylococcus aureus. As for the experimental part:
The plate was incubated at 37 °C for 24 h, and then the culture medium was removed, washed with PBS once, followed by adding 100 µL MTT solution (0.5 mg/mL) into the corresponding well. After further incubation at 37 °C for 4 h in the dark, the MTT solution was removed. An aliquot of 100 μL DMSO was added to each well to solubilize the purple solid and then the OD value was collected at 570 nm on a microplate reader. Wells containing inoculum and without antibacterial agents were used as the positive control; wells containing only MH medium were used as the blank. The percentage of surviving cells within biofilm was calculated from4 %cellviability=A570polymer-A570blank/A570control-A570blank×100
as §3

Experiment [4] has as its system S. aureus USA300 mature biofilm. The experiment can be described thus: Activity against mature biofilm. The class given is cell-based, Staphylococcus aureus. The settings on record: for Biofilm survival(%): norfloxacin, r4-r9 = 64, 128, 256, 512, 1024, 2048 MIC. As for the experimental part: The plate was incubated at 37 °C for 24 h to allow biofilm formation. […] Then MTT assay was used to determine the biofilm viability. Wells containing inoculum and without antibacterial agents were used as the positive control; wells containing only MH medium were used as the blank. The percentage of surviving cells within biofilm was calculated from5 %cellviability=A570polymer-A570blank/A570control-A570blank×100
as §3

Where [5] appears, read: clinical isolate L. monocytogenes 1001, read-out: MIC.
Where [6] appears, read: clinical isolate E. faecalis 2305, read-out: MIC.

Values after ≈ are worked out from the molar mass of the structure shown. Values joined by “and” are separate entries in the source; they are usually repeats but may differ in a detail not shown here. Equal values may be shown once. Read-outs that look alike come from different tables or passages of the source.

Regarding `CC1(C)S[C@@H]2[C@H](NC(=O)[C@H](N)c3ccccc3)C(=O)N2[C@H]1C(=O)O` [Ampicillin], the MIC against E. faecalis 0609 (0609) was 3.13 mg/L (≈ 8.96 µM); with E. faecalis 2305 (2305) it was 12.5 mg/L (≈ 35.8 µM); with E. faecium 0502 it was over 200 mg/L; with E. faecium 0609, over 200 mg/L; in the experiment on E. faecium 0610 it was over 200 mg/L; in the experiment with E. faecium 1205, over 200 mg/L. For the same compound, the MIC worked out at 100 mg/L (≈ 286 µM) in the experiment on E. faecium 2504; 0.39 mg/L (≈ 1.12 µM) with S. agalactiae 0613; 1.56 mg/L (≈ 4.46 µM) with S. aureus 2202; 25 mg/L (≈ 71.5 µM) in the experiment with S. aureus 2802; 25 mg/L (≈ 71.5 µM) with S. aureus 2902; 25 mg/L (≈ 71.5 µM) with S. aureus 2904. Further, the MIC in the experiment on S. epidermidis 0501 is 6.25 mg/L (≈ 17.9 µM); in the experiment on S. epidermidis 9397 it was 0.39 mg/L (≈ 1.12 µM); in the experiment with S. haemolyticus 0202, 200 mg/L (≈ 572 µM); with S. haemolyticus 1107, over 200 mg/L; with S. haemolyticus 1303, 200 mg/L (≈ 572 µM); in the experiment with L. monocytogenes 1001 (setting [5]), 1.56 mg/L (≈ 4.46 µM).

With `COc1cccc(OC)c1C(=O)N[C@@H]1C(=O)N2[C@@H]1SC(C)(C)[C@@H]2C(=O)O` [Methicillin], the minimum inhibitory concentration (MIC) was 50 mg/L (≈ 131 µM) in the experiment on E. faecalis 0609 (clinical isolate E. faecalis 0609, read-out: MIC); over 200 mg/L with E. faecalis 2305 (setting [6]); over 200 mg/L with E. faecium 0502; over 200 mg/L with E. faecium 0609; over 200 mg/L in the experiment with E. faecium 0610; over 200 mg/L with E. faecium 1205. Further, the MIC with E. faecium 2504 was over 200 mg/L; with S. agalactiae 0613, 1.56 mg/L (≈ 4.1 µM); in the experiment with S. aureus 2202, 3.13 mg/L (≈ 8.23 µM); in the experiment with S. aureus 2802, 6.25 mg/L (≈ 16.4 µM); with S. aureus 2902 it was 12.5 mg/L (≈ 32.9 µM); with S. aureus 2904, 6.25 mg/L (≈ 16.4 µM). The MIC in the experiment on S. epidermidis 0501 is 12.5 mg/L (≈ 32.9 µM); with S. epidermidis 9397, 1.56 mg/L (≈ 4.1 µM); in the experiment on S. haemolyticus 0202, 200 mg/L (≈ 526 µM); in the experiment on S. haemolyticus 1107, over 200 mg/L; with S. haemolyticus 1303, over 200 mg/L; in the experiment with L. monocytogenes 1001 (setting [5]), 25 mg/L (≈ 65.7 µM).

Consider `CCn1cc(C(=O)O)c(=O)c2cc(F)c(N3CCNCC3)cc21` [Norfloxacin], for which the MIC against E. faecalis 0609 (0609) is 1.56 mg/L (≈ 4.89 µM); with E. faecalis 2305 (setting [6]) it was 25 mg/L (≈ 78.3 µM); in the experiment on E. faecium 0502, 100 mg/L (≈ 313 µM); in the experiment on E. faecium 0609, over 200 mg/L; with E. faecium 0610 it was 200 mg/L (≈ 626 µM); with E. faecium 1205, 100 mg/L (≈ 313 µM). Besides, the MIC in the experiment with E. faecium 2504 is 200 mg/L (≈ 626 µM); in the experiment with S. agalactiae 0613 it was 25 mg/L (≈ 78.3 µM); in the experiment on S. aureus 2202, 50 mg/L (≈ 157 µM); in the experiment on S. aureus 2802, 200 mg/L (≈ 626 µM); in the experiment with S. aureus 2902, 25 mg/L (≈ 78.3 µM); with S. aureus 2904, 200 mg/L (≈ 626 µM). Besides, the minimum inhibitory concentration (MIC) in the experiment on S. epidermidis 0501 turned out to be 0.2 mg/L (≈ 0.626 µM); in the experiment on S. epidermidis 9397 it was 0.2 mg/L (≈ 0.626 µM); in the experiment with S. haemolyticus 0202, 100 mg/L (≈ 313 µM); in the experiment with S. haemolyticus 1107, 100 mg/L (≈ 313 µM); with S. haemolyticus 1303, 25 mg/L (≈ 78.3 µM); in the experiment with L. monocytogenes 1001 (1001), 1.56 mg/L (≈ 4.89 µM). In addition, the “increase of MBC” value in the experiment with S. aureus ATCC6538 [1] came out at 1024 times. Moreover, the “time to kill 90% of S. aureus” value in the experiment with S. aureus ATCC6538 [2] was in the range of 2 to 3 h. Moreover, the “concentration required to inhibit the formation of S. aureus biofilm” value in experiment [3] is on record as 64 × MIC. For the same compound, the “concentration that eradicates mature biofilms of S. aureus” value in experiment [4] is over 2048 × MIC. In addition, the “Biofilm survival(%)” value in experiment [4] (replicate 1) was 91.6463% and 85.7695% and 83.8544% and 89.6297% and 72.4394% and 55.1024%; in experiment [4] (replicate 2) it was 89.0013% and 75.6713% and 82.9402% and 81.0138% and 70.6748% and 61.6339%; in experiment [4] (replicate 3), 91.3528% and 81.8867% and 88.4821% and 86.774% and 64.2036% and 56.0543%.

With `C[C@H]1COc2c(N3CCN(C)CC3)c(F)cc3c(=O)c(C(=O)O)cn1c23` [levofloxacin], in the experiment on S. aureus ATCC6538 [2], the “time to kill 90% of S. aureus” value was in the range of 2 to 3 h.

Values taken from publication PMC8501045, “Addressing MRSA infection and antibacterial resistance with peptoid polymers” (Nature Communications, 2021).
